# Biological target: Tyrosine-protein kinase BTK (Homo sapiens, UniProt Q06187)
# Assay: Inhibition of human recombinant BTK
# Sequence of Tyrosine-protein kinase BTK (Q06187 whole entry): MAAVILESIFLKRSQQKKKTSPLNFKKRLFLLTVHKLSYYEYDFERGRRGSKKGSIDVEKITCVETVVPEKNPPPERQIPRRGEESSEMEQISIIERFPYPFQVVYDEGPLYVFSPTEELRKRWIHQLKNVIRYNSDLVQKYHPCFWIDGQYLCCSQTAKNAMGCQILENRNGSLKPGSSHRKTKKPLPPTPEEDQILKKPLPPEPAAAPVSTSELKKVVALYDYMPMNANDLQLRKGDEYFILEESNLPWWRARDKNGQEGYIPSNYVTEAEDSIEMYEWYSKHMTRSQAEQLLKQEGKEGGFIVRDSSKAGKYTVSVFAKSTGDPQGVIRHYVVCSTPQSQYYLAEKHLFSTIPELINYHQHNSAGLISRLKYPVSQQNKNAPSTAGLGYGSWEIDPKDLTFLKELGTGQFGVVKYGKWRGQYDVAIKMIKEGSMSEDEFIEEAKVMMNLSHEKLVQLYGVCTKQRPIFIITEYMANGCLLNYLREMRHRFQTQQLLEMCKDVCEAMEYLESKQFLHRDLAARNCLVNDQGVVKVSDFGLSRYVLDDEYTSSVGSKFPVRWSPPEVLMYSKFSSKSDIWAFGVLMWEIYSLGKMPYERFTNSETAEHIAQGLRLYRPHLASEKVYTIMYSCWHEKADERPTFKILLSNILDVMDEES
row,IC50 [nM],Compound
1,28,COc1cccc(-c2ccc(C(N)=O)c3[nH]c4ccc(C(=O)N5CCN(C)CC5)cc4c23)c1
2,32,COc1cccc(-c2ccc(C(N)=O)c3[nH]c4cc(C(=O)N5CCN(C)CC5)ccc4c23)c1
3,30,CC(=O)Nc1cccc(-c2ccc(C(N)=O)c3[nH]c4cc(C(=O)N5CCN(C)CC5)ccc4c23)c1
4,55,COc1ccc(-c2ccc(C(N)=O)c3[nH]c4cc(C(=O)N5CCN(C)CC5)ccc4c23)cc1
5,24,Cc1ccccc1-c1ccc(C(N)=O)c2[nH]c3cc(C(=O)N4CCN(C)CC4)ccc3c12
6,144,COc1ccccc1-c1ccc(C(N)=O)c2[nH]c3cc(C(=O)N4CCN(C)CC4)ccc3c12
7,38,CN1CCN(C(=O)c2ccc3c(c2)[nH]c2c(C(N)=O)ccc(-c4cccc(Cl)c4)c23)CC1
8,71,CNC(=O)c1cccc(-c2ccc(C(N)=O)c3[nH]c4cc(C(=O)N5CCN(C)CC5)ccc4c23)c1
9,59,CN1CCN(C(=O)c2ccc3c(c2)[nH]c2c(C(N)=O)ccc(-c4ccc(Cl)cc4)c23)CC1
10,103,CN1CCN(C(=O)c2ccc3c(c2)[nH]c2c(C(N)=O)ccc(-c4ccc(C(C)(C)C)cc4)c23)CC1
11,101,CN1CCN(C(=O)c2ccc3c(c2)[nH]c2c(C(N)=O)ccc(-c4ccc(Cl)c(Cl)c4)c23)CC1
12,13,CN1CCN(C(=O)c2ccc3c(c2)[nH]c2c(C(N)=O)ccc(-c4cccc(Cl)c4Cl)c23)CC1
13,6.9,CN1CCN(C(=O)c2ccc3c(c2)[nH]c2c(C(N)=O)ccc(-c4cccc(F)c4F)c23)CC1
14,32,Cc1c(Cl)cccc1-c1ccc(C(N)=O)c2[nH]c3cc(C(=O)N4CCN(C)CC4)ccc3c12
15,19,Cc1c(N)cccc1-c1ccc(C(N)=O)c2[nH]c3cc(C(=O)N4CCN(C)CC4)ccc3c12
16,22,CN1CCN(C(=O)c2ccc3c(c2)[nH]c2c(C(N)=O)ccc(-c4ccc(F)cc4F)c23)CC1
17,12,CN1CCN(C(=O)c2ccc3c(c2)[nH]c2c(C(N)=O)ccc(-c4c(F)cccc4F)c23)CC1
18,7.2,Cc1c(NC(=O)c2ccccc2)cccc1-c1ccc(C(N)=O)c2[nH]c3cc(C(=O)N4CCN(C)CC4)ccc3c12
19,3.8,Cc1c(NC(=O)c2ccc(F)cc2)cccc1-c1ccc(C(N)=O)c2[nH]c3cc(C(=O)N4CCN(C)CC4)ccc3c12

# The remaining lines, values behind:
row,Compound,IC50 [nM]
1,NC(=O)c1cc(-c2ccc(Cl)c(Cl)c2)cc2c1[nH]c1ccc(C(=O)N3CCOCC3)cc12,461
2,COc1cccc(-c2cc(C(N)=O)c3[nH]c4ccc(C(=O)N5CCOCC5)cc4c3c2)c1,360
3,CN1CCN(C(=O)c2ccc3[nH]c4c(C(N)=O)cc(-c5ccc(Cl)cc5)cc4c3c2)CC1,110
4,CC(=O)Nc1cccc(-c2ccc(C(N)=O)c3[nH]c4ccc(C(=O)N5CCN(C)CC5)cc4c23)c1,88
5,COc1ccc(-c2ccc(C(N)=O)c3[nH]c4ccc(C(=O)N5CCN(C)CC5)cc4c23)cc1,29
6,CC(=O)Nc1ccc(-c2ccc(C(N)=O)c3[nH]c4ccc(C(=O)N5CCN(C)CC5)cc4c23)cc1,39
7,CC(=O)Nc1ccc(-c2ccc(C(N)=O)c3[nH]c4cc(C(=O)N5CCN(C)CC5)ccc4c23)cc1,15
8,CNC(=O)c1ccc(-c2ccc(C(N)=O)c3[nH]c4cc(C(=O)N5CCN(C)CC5)ccc4c23)cc1,44
9,CN1CCN(C(=O)c2ccc3c(c2)[nH]c2c(C(N)=O)ccc(-c4ccc(Oc5ccccc5)cc4)c23)CC1,127
10,Cc1c(NC(=O)c2ccc(N(C)C)cc2)cccc1-c1ccc(C(N)=O)c2[nH]c3cc(C(=O)N4CCN(C)CC4)ccc3c12,3.5
11,Cc1c(NC(=O)c2ccc(C(C)(C)C)cc2)cccc1-c1ccc(C(N)=O)c2[nH]c3cc(C(=O)N4CCN(C)CC4)ccc3c12,12
12,CN1CCN(C(=O)c2ccc3c(c2)[nH]c2c(C(N)=O)ccc(-c4cccc(NC(=O)c5ccc(F)cc5)c4F)c23)CC1,9.4
13,CN1CCN(C(=O)c2ccc3c(c2)[nH]c2c(C(N)=O)ccc(-c4cccc(NC(=O)c5ccc(F)cc5)c4)c23)CC1,39
14,NC(=O)c1cc(-c2cccc(Cl)c2)cc2c1[nH]c1ccc(C(=O)N3CCOCC3)cc12,189
15,COc1ccc(-c2cc(C(N)=O)c3[nH]c4ccc(C(=O)N5CCOCC5)cc4c3c2)cc1,327
16,NC(=O)c1cc(-c2ccc(Cl)cc2)cc2c1[nH]c1ccc(C(=O)N3CCOCC3)cc12,308
17,COc1cccc(-c2cc(C(N)=O)c3[nH]c4cc(C(=O)N5CCN(C)CC5)ccc4c3c2)c1,404
18,COc1ccc(-c2cc(C(N)=O)c3[nH]c4cc(C(=O)N5CCN(C)CC5)ccc4c3c2)cc1,436
19,CN1CCN(C(=O)c2ccc3c(c2)[nH]c2c(C(N)=O)cc(-c4ccc(Cl)c(Cl)c4)cc23)CC1,812
20,CC(=O)Nc1cccc(-c2cc(C(N)=O)c3[nH]c4cc(C(=O)N5CCN(C)CC5)ccc4c3c2)c1,379

# Biological target: Tyrosine-protein kinase JAK2 (Homo sapiens, UniProt O60674)
# Assay: Inhibition of JAK2 (unknown origin)
# Sequence of Tyrosine-protein kinase JAK2 (O60674 whole entry): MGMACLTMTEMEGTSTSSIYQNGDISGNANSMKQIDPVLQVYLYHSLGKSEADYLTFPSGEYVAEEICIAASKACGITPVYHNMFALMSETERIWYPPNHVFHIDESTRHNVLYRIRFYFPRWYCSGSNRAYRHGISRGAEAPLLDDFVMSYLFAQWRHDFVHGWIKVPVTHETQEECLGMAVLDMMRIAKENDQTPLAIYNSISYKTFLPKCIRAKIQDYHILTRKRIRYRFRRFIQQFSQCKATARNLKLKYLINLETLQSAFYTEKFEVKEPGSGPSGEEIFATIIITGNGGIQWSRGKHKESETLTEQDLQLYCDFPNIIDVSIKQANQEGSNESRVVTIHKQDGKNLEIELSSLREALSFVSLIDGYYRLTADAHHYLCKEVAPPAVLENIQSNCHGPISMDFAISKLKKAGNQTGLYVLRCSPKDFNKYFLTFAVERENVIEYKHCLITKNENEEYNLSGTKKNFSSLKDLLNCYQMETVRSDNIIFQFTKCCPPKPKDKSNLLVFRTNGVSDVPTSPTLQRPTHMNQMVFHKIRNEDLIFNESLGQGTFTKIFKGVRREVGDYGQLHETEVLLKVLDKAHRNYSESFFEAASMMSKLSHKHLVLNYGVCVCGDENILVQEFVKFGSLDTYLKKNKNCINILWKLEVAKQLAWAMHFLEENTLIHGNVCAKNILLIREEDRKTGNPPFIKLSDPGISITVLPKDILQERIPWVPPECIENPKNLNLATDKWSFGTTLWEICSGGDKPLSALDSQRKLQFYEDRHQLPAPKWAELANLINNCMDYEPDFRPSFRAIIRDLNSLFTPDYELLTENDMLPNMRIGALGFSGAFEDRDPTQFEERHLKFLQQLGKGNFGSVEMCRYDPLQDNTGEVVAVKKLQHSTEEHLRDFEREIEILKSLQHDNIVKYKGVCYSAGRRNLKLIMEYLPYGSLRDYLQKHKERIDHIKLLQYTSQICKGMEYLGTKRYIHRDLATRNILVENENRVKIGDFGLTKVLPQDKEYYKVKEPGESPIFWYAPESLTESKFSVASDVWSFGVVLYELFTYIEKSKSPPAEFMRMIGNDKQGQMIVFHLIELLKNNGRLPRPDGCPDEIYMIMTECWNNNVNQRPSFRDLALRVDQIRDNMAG
row,IC50 [nM],Compound
1,1.7,NC(=O)c1cc(-c2cccc(Cl)c2)cc2c1[nH]c1ccc(C(=O)N3CCOCC3)cc12
2,2,COc1ccc(-c2cc(C(N)=O)c3[nH]c4ccc(C(=O)N5CCOCC5)cc4c3c2)cc1
3,2.6,NC(=O)c1cc(-c2ccc(Cl)cc2)cc2c1[nH]c1ccc(C(=O)N3CCOCC3)cc12
4,4.3,COc1cccc(-c2cc(C(N)=O)c3[nH]c4cc(C(=O)N5CCN(C)CC5)ccc4c3c2)c1
5,5.5,COc1ccc(-c2cc(C(N)=O)c3[nH]c4cc(C(=O)N5CCN(C)CC5)ccc4c3c2)cc1
6,6.2,CN1CCN(C(=O)c2ccc3c(c2)[nH]c2c(C(N)=O)cc(-c4ccc(Cl)c(Cl)c4)cc23)CC1
7,27,CC(=O)Nc1cccc(-c2cc(C(N)=O)c3[nH]c4cc(C(=O)N5CCN(C)CC5)ccc4c3c2)c1

# Source: ChEMBL document CHEMBL3621099, “Design and synthesis of carbazole carboxamides as promising inhibitors of Bruton's tyrosine kinase (BTK) and Janus kinase 2 (JAK2)” (Bioorg Med Chem Lett, 2015)
